Source: patent publication US11439618B2, “Compositions and methods for lowering triglycerides” (Amarin Pharmaceuticals Ireland Limited, priority 2009, dated 2022)

Columns and labels:
[1] = tested on: subjects with Age-Associated Memory Impairment; experiment: Safety and tolerability (adverse events), 6-week AAMI study; format: in vivo, human
Protocol: All randomized subjects that received at least 1 dose of study medication were included in the Safety Population.
Safety evaluations were based on the safety population. Safety and tolerability were assessed in terms of AEs, vital signs, 12-lead ECG, clinical laboratory data, medical history, and study drug compliance. Safety and tolerability data were presented by treatment group.

[2] = previous data; standard deviation of 15%; cited from earlier work

CC/C=C\C/C=C\C/C=C\C/C=C\C/C=C\CCCC(=O)OCC [Ethyl-EPA, all-cis eicosa-5,8,11,14,17-pentaenoic acid ethyl ester]
Nausea Probably Related to the study drug ([1]; 1 g): One | Nausea Possibly Related to the study drug ([1]; 1 g cohort): two | Nausea Possibly Related to the study drug ([1]; 2 g cohort): one | SAE reported ([1]; 2 g treatment group): One | Subjects discontinued due to TEAEs ([1]; 2 g treatment group): 2 subjects | Serious adverse event (worsening epigastric chest pain), relation to study drug ([1]; 2 g, one subject, 17 days after start, 9 days after last dose): unrelated to the study drug | Nausea Possibly Related to the study drug ([1]; 4 g cohort): two | Diarrhea, relation to the study drug ([1]; 4 g, one subject): diarrhea that was Probably Related to the study drug | Treatment emergent AEs (TEAEs) reported ([1]; ethyl-EPA treatment groups (1, 2, 4 g), placebo groups 34 events): 105 events | Deaths during the study ([1]; whole study): no deaths | Severity and relatedness of most TEAEs ([1]; whole study): mild in severity and unrelated to study drug | TEAEs Definitely Related to the study drug ([1]; whole study): No TEAEs were Definitely Related | Difference in percent change from baseline in fasting LDL-C between study drug and placebo [2]: 2.2%
